Reference: patent US20110144125A1, “Anti-Arrhythmia Agents, Methods of Their Use, Methods of Their Identification and Kits Therefore” (THE UAB RESEARCH FOUNDATION, priority 2008, published 2011)
Where a name gives a salt, the structure may show the parent alone. Values belong to the compound of their own block, whether it stands above or below them.

Experiments:
rat right atria = assay: Right atrial spontaneous (pacemaker-driven) contraction frequency
Protocol: (§1) Male Sprague-Dawley rats (325-400 g) were anesthetized with intra-peritoneal pentobarbital (0.1 g/kg). Their right and left atria were isolated, superfused at 30° C. in Krebs-Henseleit buffer, and nearly isometric forces of contraction were measured from these muscles (Wolkowicz et al., 2002). 2-APB was prepared as a 150 mM dimethyl sulfoxide stock.
Left atria (n=9) were paced at 0.1 Hz, treated with 300 nM BayK 8644 for 5 min, then with 20 μM 2-APB for 10 min, and the pacing stimulus was stopped. These preparations then were incubated with six increasing concentrations of zatebradine (10-100 μM) for 3-5 min at each concentration, and rates of SMA were recorded. Untreated right atria (n=9) also were titrated with zatebradine and its effect on contraction frequency was recorded.
To test whether zatebradine affects the SMA occurring in the presence of 2-APB and isoproterenol, left atria (n=7) were paced at 0.1 Hz, treated with 30 nM isoproterenol for 5 min, then with 20 μM 2-APB for 10 min, and the pacing stimulus was stopped. Rates of SMA were recorded, these left atria were exposed to 70 μM zatebradine for 10 min, and rates of SMA were recorded again. A group of right atria (n=7) also were exposed to 30 nM isoproterenol for 5 min and then to 70 μM zatebradine for 10 min. Right atrial contraction frequency was recorded at these two times.
To test whether ZD-7288 (4-Ethylphenyl amino-1,2-dimethyl-6-methylaminopyridinium chloride), an If inhibitor structurally unrelated to zatebradine (Baruscotti et al., 2005; Sanders et al., 2006) affects the SMA occurring in the presence of 2-APB and BayK 8644, rat left atria (n=7) were treated with 300 nM BayK 8644 for 5 min, then with 20 μM 2-APB for 10 min, and the rates of SMA were recorded. These atria then were incubated with six increasing concentrations of ZD-7288 (10-100 μM) for 3-5 min at each concentration, and the rates of SMA were recorded. Right atria (n=7) were titrated similarly with ZD-7288 (0-100 μM) and the change in their contraction frequency was recorded.

rat left atria [1] = assay: Spontaneous tachycardic activity (STA) in isolated rat left atria exposed to 2-APB under increased calcium load; conditions: for effect of If inhibitor on left atrial STA: BayK 8644 and 2-APB, zatebradine 70 μM, ZD-7288 titration to 100 μM
Protocol: as §1
(§2) Left atria (n=8 per group) were paced at 3 Hz and (i) titrated with 0 to 30 nM isoproterenol (Ahlquist, 1970) or (ii) exposed to 3 μM forskolin (Laurenza et al., 1980). Left atrial force and frequency of contraction, the time to peak tension and relaxation times were recorded after a 3-5 min exposure to forskolin or to any concentration of isoproterenol. The 3 Hz pacing stimulus was interrupted at the end of these protocols to measure SMEs.
(§3) Left atria (n=10 per group) were paced at 0.1 Hz and treated with (i) 20 μM 2-APB for 10 min, (ii) with 30 nM isoproterenol for 5 min followed by 20 μM 2-APB for 10 min, and (iii) with 3 μM forskolin for 5 min followed by 20 μM 2-APB for 10 min.
Left atrial contraction and relaxation times were recorded at these five times, the pacing stimulus was stopped and rates of SMA were recorded. To determine whether initial pacing rate affects left atrial response to 2-APB and isoproterenol, left atria (n=5-7 per group) were paced at 3 Hz and (i) remained untreated for 15 min, (ii) were treated with 20 μM 2-APB alone for 10 min, or (ii) were treated with 30 nM isoproterenol for 5 min followed by 20 μM 2-APB for 10 min. Atrial mechanical function was measured at these four times; the pacing stimulus then was stopped and rates of SMA were recorded.
(§4) Left atria (n=6 per group) were paced at 3 Hz, titrated with 0 to 300 nM (−)BayK 8644 ([…]-1,4-Dihydro-2,6-dimethyl-5-nitro-4-[2-(trifluormethyl)phenyl]-3-pyridinecarboxylic acid methyl ester; Franckowiak et al. 1985) or FPL-64176 ((2,5-Dimethyl-4-[2-(phenylmethyl)benzoyl]-111-pyrrole-3-carboxylic acid methyl ester; Zheng et al., 1991) and their mechanical function and rates of SMA were recorded after a 5 min exposure to any concentration of slow calcium channel activator.
Left atria (n=8 per group) were paced at 0.1 Hz, exposed to 300 nM BayK 8644 or FPL-64176 for 5 min followed by 20 μM 2-APB for 10 min. Atrial mechanical function was recorded at this time; the pacing stimulus then was stopped and rates of SMA were recorded.
(§5) To test whether ryanodine receptor calcium leak produces SMA, left atria (n=6 per group) were paced at 0.1 Hz, treated with 0 or 300 nM BayK 8644 for 5 min, and then exposed to 600 nM ryanodine (Sutko et al., 1997). Atrial mechanical function and rates of SMA were recorded 20 min after exposure to ryanodine.
Rates of SMA were measured 5 min later.
(§6) Left atria (n=7) were paced at 3 Hz, treated with 120 μM ouabain (Illanes and Marshall, 1964), and any change in mechanical function was recorded at a new steady state, ˜10 min later. These atria were exposed to 20 μM 2-APB and their mechanical function and rates of SMA were recorded 10 min later.
3 Hz-paced left atria (n=9 per group) were superfused (i) in Krebs-Henseleit alone or (ii) they were treated with 20 μM 2-APB for 10 min, (iii) with 300 nM BayK 8644 for 10 min and with 20 μM 2-APB for 10 min, or (iv) they were treated with 300 nM BayK 8644 and 20 μM 2-APB for 10 min, then with 70 μM zatebradine (3-[3-[[2-(3,4-Dimethoxyphenyl)ethyl]methylamino] propyl]-1,3,4,5-tetrahydro-7,8,-dimethoxy-2H-3-benzazepin-2-one hydrochloride) for 10 min (Baruscotti et al., 2005). Pacing was interrupted at these times and rates of SMA were recorded.

rat left atria [2] = assay: Left atrial force of contraction / post-rest potentiation maximum force
Protocol: (§7) Left atria were isolated from male Sprague-Dawley rats (325 to 400 g) under IP pentobarbital anesthesia (0.1 g/kg). Isolated left atria were superfused at 30° C. in Krebs-Henseleit (KH) buffer of the following mM composition: NaCl, 118; NaHCO3, 27; KCl, 4.8; MgSO4, 1.2; KH2PO4, 1.0; CaCl2, 1.8; and glucose, 11.1. Nearly isometric left atrial forces of contraction were measured as described.
The initial potentiated beat following prolonged rest (i.e., the PRP maximum force of contraction) reflects activator calcium available for SR release. The PRP response was used to obtain an indirect measure of left atrial SR calcium under our conditions.
Left atria (n=6) were superfused in KH, paced at 0.1 Hz, and subjected to PRP. Superfusion proceeded for another 35 min, and a second PRP was performed. These 2 forces were compared to assure the mechanical stability of our preparations.
One group (n=8) was superfused in KH, paced at 0.1 Hz, and their maximum force of contraction was measured. These atria were washed with KH containing 82 mM sodium, and a second PRP was performed 23 min later.
A second group (n=8) was paced at 0.1 Hz in KH and subjected to PRP. They were exposed to 22 μM 2-APB and, after the appearance of SMA, were washed with KH containing 22 μM 2-APB and 82 mM sodium. Superfusion continued for 23 min and a second PRP was performed.
Control 0.1 Hz paced atria (n=8) were subjected to PRP and exposed to 400 μM DIDS, and a second PRP was performed 23 min later.
A group of atria (n=8) were paced at 0.1 Hz in KH and subjected to PRP. They were exposed to 22 μM 2-APB, 400 μM DIDS was added to the superfusate after the appearance of SMA, and a second PRP was performed 23 min later.
as §2, §4, §5, §6
To test whether zatebradine affects left atrial force of contraction, two groups of left atria (n=9 per group) were paced at 3 Hz and treated with 300 nM BayK 8644. Five minutes later one group was incubated with six increasing concentrations of zatebradine (10-100 μM) for 3-5 min at each concentration, and forces of contraction were recorded. A second group was treated with BayK 8644 but not zatebradine, and forces of contraction were recorded at corresponding times.

[3] = test system: rat left atrial appendage; assay: 2-APB-induced spontaneous mechanical activity (SMA/SMEs) in isolated superfused rat left atria / left atrial appendage; conditions: 0.1 Hz paced, 15 μM 2-APB, titration after appearance of SMA
Protocol: as §7
Isolated superfused left atria were paced at 3 Hz. 2-APB was added to atrial superfusates from 0.015 or 0.15M DMSO stock solutions to achieve concentrations of 0, 2, 7.5, 15, or 22 μM (n=5 to 10 atria per concentration). Changes in atrial mechanical force were recorded during a subsequent 15 min superfusion.
Two groups of 5 to 6, 3 Hz paced atria were superfused in KH and exposed to 0 or 15 μM 2-APB for 10 min. The pacing stimulus was interrupted for 5 min and the number of spontaneous mechanical events (SMEs), defined as increases in mechanical force occurring in the absence of pacing, were measured as was the postrest potentiation response (PRP).
To determine whether diastolic interval affected the interaction between 2-APB and left atria, atrial pacing was decreased to 0.1 Hz, and 0, 7.5, or 22 μM 2-APB was added to the superfusate (n=6-8 per group). Superfusions continued for 15 min, and changes in atrial mechanical function were observed.
To establish whether SMA was reversible, atria (n=7) were paced at 0.1 Hz, exposed to 15 μM 2-APB for 10 min, and washed with KH. The effect of removing 2-APB on atrial mechanical function was recorded.
To test whether an anion transport inhibitor affected SMA, atria (n=7) were paced at 0.1 Hz in KH and exposed to 15 μM 2-APB. Following the appearance of SMA, they were titrated with 100 to 400 μM DIDS for 3 to 5 min at each concentration. Whether SMA occurred at the end of each titration period was recorded.
as §3
The appendages then were titrated with increasing concentrations of 2-APB, and SMA was measured and recorded.
(§8) To determine the anti-arrhythmic activity of gossypol, isolated rat left atrial appendage and right ventricular muscle strips were used as model systems, as described above. Heart muscle was exposed to 20 μM 2-APB for 10 min to induce SMA, and rates of SMA were recorded as a percentage of initial SMA. The muscles then were titrated with up to 5 increasing concentrations of gossypol. Rates of SMA were recorded ˜10 min after the addition of concentration of the polyphenol.
To determine whether EGCG can prevent arrhythmia, rat left atrial appendages (n=9) were exposed to 20 μM 2-APB and rates of SMA were recorded. Groups of muscles (n=6 per) were pre-treated with 30 μM EGCG for 10 min following which they were exposed to 2-APB. Rates of SMA were recorded 10 min later.
as §8, with “whether EGCG is effective to reverse arrhythmia,” for “the anti-arrhythmic activity of gossypol,”, “Rat left atrial appendages were” for “Heart muscle was”, “left atrial appendages” for “muscles”, “the following polyphenols: EGCG, gossypol, resveratrol, and quercetin.” for “gossypol.”
To determine whether EGC can prevent arrhythmia, left atrial appendages (n=9) were exposed to 20 μM 2-APB and rates of SMA were recorded. Groups of appendages (n=6 per) were pre-treated with 30 μM EGC for 10 min following which they were exposed to 2-APB.

- IC50 (rat right atria; Rattus norvegicus, untreated right atria titrated with zatebradine, read-out: IC50 for decrease of right atrial contraction frequency): 12 ± 1.1 µM
- IC50 (rat left atria [1]; Rattus norvegicus, intact left atria exposed to BayK 8644 and 2-APB, read-out: IC50 for decrease of STA): 58 ± 5 µM
Structure (SMILES): COc1ccc(CCN(C)CCCN2CCc3cc(OC)c(OC)cc3CC2=O)cc1OC [zatebradine, 3-[3-[[2-(3,4-Dimethoxyphenyl)ethyl]methylamino]propyl]-1,3,4,5-tetrahydro-7,8,-dimethoxy-2H-3-benzazepin-2-one hydrochloride]
- right atrial contraction frequency (rat right atria; isoproterenol+70 μM zatebradine): 212±9.7 contractions/min
- maximum decrease of right atrial contraction frequency (rat right atria; zatebradine titration): ~50%
- effect of If inhibitor on left atrial STA (rat left atria [1]): significantly decreases
- rate of appendage STA (rat left atria [1]; isoproterenol+2-APB+70 μM zatebradine): 110±24.5 contractions/min
- left atrial force of contraction (rat left atria [2]; 3 Hz paced, 300 nM BayK 8644, titrated with 10-100 μM zatebradine): 95±3.8 % of initial force

Structure (SMILES): CCN(c1ccccc1)c1cc(NC)[n+](C)c(C)n1.[Cl-] [ZD-7288]
- effect on right atrial contraction frequency (rat right atria; ZD-7288 titration 0-100 μM): decreases right atrial contraction frequency less robustly than zatebradine
- effect of If inhibitor on left atrial STA (rat left atria [1]): decreases left atrial STA

Structure (SMILES): O=S(=O)(O)c1cc(N=C=S)ccc1C=Cc1ccc(N=C=S)cc1S(=O)(=O)O [DIDS, 4,4′-diisothiocyanatostilbene-2,2′-disulfonic acid]
- DIDS concentration that reversed SMA completely [3]: > 300 µM
- maximum forces of left atrial contraction, beginning vs end of 35-min superfusion (rat left atria [2]; 400 μM DIDS alone, no 2-APB): not different
